Experimental findings from US10112935B2, “Indazolyl thiadiazolamines and related compounds for inhibition of Rho-associated protein kinase and the treatment of disease” (Lycera Corporation, priority 2015, dated 2018) are described below.

In test [1] the target is GST-tagged human ROCK1 catalytic domain 1-477 (Homo sapiens (Human), UniProt Q13464). Nature of the test: Inhibition of Rho-associated protein kinase isoform 1 (LANCE Ultra ULight-CREBtide FRET kinase assay). It is filed as biochemical. The following applies: 30 μM was the highest concentration analyzed. In a few lines:
(§1)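 Baculovirus-expressed kinase phosphorylated ULight-CREBtide for 90 min at room temperature before the reaction was stopped with 10 mM EDTA. Phospho-substrate was detected by TR-FRET with 1 nM Europium-anti-phospho-CREB (Ser133) antibody after 60 min at room temperature.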
(In general: Time-resolved FRET reads energy transfer from a long-lived donor to a nearby acceptor.)

The target in test [2] is GST-tagged human ROCK2 catalytic domain 1-553 (Homo sapiens (Human), UniProt O75116). The test can be described thus: Inhibition of Rho-associated protein kinase isoform 2 (LANCE Ultra ULight-CREBtide FRET kinase assay). In kind it is biochemical. The following applies: for IC50: 30 μM was the highest concentration analyzed; for Selectivity for ROCK2 over ROCK1 (IC50 ROCK1 / IC50 ROCK2): selectivity ROCK2 vs ROCK1. Summed up:
as §1

Sequence of GST-tagged human ROCK2 catalytic domain 1-553 (O75116 1-553): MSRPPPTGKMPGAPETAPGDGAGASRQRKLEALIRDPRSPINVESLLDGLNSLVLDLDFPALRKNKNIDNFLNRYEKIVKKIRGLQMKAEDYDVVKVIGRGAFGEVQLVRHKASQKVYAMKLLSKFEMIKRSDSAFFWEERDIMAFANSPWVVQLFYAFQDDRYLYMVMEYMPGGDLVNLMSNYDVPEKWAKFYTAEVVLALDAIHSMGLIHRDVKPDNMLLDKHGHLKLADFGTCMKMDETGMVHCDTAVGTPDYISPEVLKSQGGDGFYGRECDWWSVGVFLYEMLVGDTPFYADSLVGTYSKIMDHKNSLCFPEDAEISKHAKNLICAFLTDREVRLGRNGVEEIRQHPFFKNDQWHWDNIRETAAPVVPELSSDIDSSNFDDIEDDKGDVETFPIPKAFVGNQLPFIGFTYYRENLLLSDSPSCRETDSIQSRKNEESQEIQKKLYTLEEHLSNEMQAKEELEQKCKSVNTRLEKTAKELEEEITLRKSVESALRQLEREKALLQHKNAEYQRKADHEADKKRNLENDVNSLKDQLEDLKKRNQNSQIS
Sequence of GST-tagged human ROCK1 catalytic domain 1-477 (Q13464 1-477): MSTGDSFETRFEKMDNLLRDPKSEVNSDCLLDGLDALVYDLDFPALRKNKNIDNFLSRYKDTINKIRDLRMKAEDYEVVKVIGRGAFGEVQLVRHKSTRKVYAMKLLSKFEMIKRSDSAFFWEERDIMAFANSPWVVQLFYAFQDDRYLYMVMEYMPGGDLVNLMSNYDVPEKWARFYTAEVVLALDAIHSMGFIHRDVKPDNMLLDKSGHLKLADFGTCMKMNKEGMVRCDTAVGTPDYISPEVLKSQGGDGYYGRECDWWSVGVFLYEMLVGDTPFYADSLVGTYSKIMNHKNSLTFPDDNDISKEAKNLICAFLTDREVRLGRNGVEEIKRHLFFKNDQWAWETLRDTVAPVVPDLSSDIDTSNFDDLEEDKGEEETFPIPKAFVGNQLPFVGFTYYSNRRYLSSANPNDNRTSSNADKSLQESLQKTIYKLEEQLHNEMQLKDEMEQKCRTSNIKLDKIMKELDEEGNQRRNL

Take `O=C(O)COc1cccc(-c2nnc(Nc3ccc4[nH]ncc4c3)s2)c1` [Example A-22]: the IC50 in test [1] and in test [2] was 1 to 15 µM throughout. In addition, the “Selectivity for ROCK2 over ROCK1 (IC50 ROCK1 / IC50 ROCK2)” value (“Selectivity … (IC50 ROCK1 / IC50 ROCK2)” for short) in test [2] was over 5.

Turning to `CC(C)NC(=O)COc1cccc(-c2nnc(Nc3ccc4[nH]ncc4c3)s2)c1` [Example A-23], the half-inhibitory concentration (IC50) – broadly, the concentration needed to halve the response being measured – in test [1] was over 30 µM. In addition, in test [2], the IC50 was under 1 µM and the “Selectivity … (IC50 ROCK1 / IC50 ROCK2)” value is over 50.

On to `Nc1cncc(-c2nnc(Nc3ccc4[nH]ncc4c3)s2)c1` [Example A-24], for which the IC50 in test [1] is under 1 µM. In test [2], the half-inhibitory concentration (IC50) is under 1 µM and the “Selectivity … (IC50 ROCK1 / IC50 ROCK2)” value is on record as under 5.

As to `c1cnc(-c2nnc(Nc3ccc4[nH]ncc4c3)s2)cn1` [Example A-25], in test [1], the half-inhibitory concentration (IC50) was over 30 µM. Also, in test [2], the half-maximal inhibitory concentration (IC50) was in the range of 1 to 15 µM and the “Selectivity … (IC50 ROCK1 / IC50 ROCK2)” value is given as over 5.

As for `c1cc(-c2cnco2)cc(-c2nnc(Nc3ccc4[nH]ncc4c3)s2)c1` [Example A-26], in test [1], the IC50 is over 30 µM. In test [2], the IC50 is over 30 µM and the “Selectivity … (IC50 ROCK1 / IC50 ROCK2)” value is on record as under 5.

With `Cn1cc(C(=O)Nc2ccc(-c3nnc(Nc4ccc5[nH]ncc5c4)s3)cc2)cn1` [Example A-27], the IC50 in test [1] is over 30 µM. Besides, in test [2], the half-maximal inhibitory concentration (IC50) is over 30 µM and the “Selectivity … (IC50 ROCK1 / IC50 ROCK2)” value is under 5.

`CC1CCN(C(=O)Nc2cccc(-c3nnc(Nc4ccc5[nH]ncc5c4)s3)c2)C1` (stereo not drawn) [Example A-28]: in test [1], the concentration for half-maximal inhibition (IC50) was under 1 µM. In addition, in test [2], the 50% inhibitory concentration (IC50) is under 1 µM and the “Selectivity … (IC50 ROCK1 / IC50 ROCK2)” value is on record as over 5.

The molecule `c1cc2[nH]ncc2cc1Nc1nnc(C2CNCCN2)s1` (stereo not drawn) [Example A-29] yielded an IC50 in test [1] of 1 to 15 µM. In addition, in test [2], the IC50 lay in the range of 1 to 15 µM and the “Selectivity … (IC50 ROCK1 / IC50 ROCK2)” value is given as under 5.

`c1cc(-c2ncco2)cc(-c2nnc(Nc3ccc4[nH]ncc4c3)s2)c1` [Example A-30] displayed a half-inhibitory concentration (IC50) in test [1] of over 30 µM. In test [2], the IC50 was under 1 µM and the “Selectivity … (IC50 ROCK1 / IC50 ROCK2)” value was over 100.

The molecule `O=C(Nc1cccc(-c2nnc(Nc3ccc4[nH]ncc4c3)s2)n1)c1c[nH]cn1` [Example A-31] came in with an IC50 in test [1] of over 30 µM. In addition, in test [2], the IC50 is under 1 µM and the “Selectivity … (IC50 ROCK1 / IC50 ROCK2)” value is over 100.

For the molecule `O=C(Nc1cc(-c2nnc(Nc3ccc4[nH]ncc4c3)s2)ccn1)c1c[nH]cn1` [Example A-32], the results for the 50% inhibitory concentration (IC50) in test [1] and in test [2] were over 30 µM and under 1 µM, respectively. In test [2], the “Selectivity … (IC50 ROCK1 / IC50 ROCK2)” value is recorded as over 100.

As for `c1cc2[nH]ncc2cc1Nc1nnc(C2CCCNC2)s1` (stereo not drawn) [Example A-33], in test [1], the half-maximal inhibitory concentration (IC50) fell in the range of 15 to 30 µM. Moreover, in test [2], the half-maximal inhibitory concentration (IC50) was 1 to 15 µM and the “Selectivity … (IC50 ROCK1 / IC50 ROCK2)” value is recorded as under 5.

Consider `COc1cccc(-c2nnc(Nc3ccc4[nH]ncc4c3)s2)c1` [Example A-34], for which the IC50 in test [1] was over 30 µM; in test [2], under 1 µM. In addition, the “Selectivity … (IC50 ROCK1 / IC50 ROCK2)” value in test [2] was over 100.

Molecule `NC1CCN(C(=O)Nc2cccc(-c3nnc(Nc4ccc5[nH]ncc5c4)s3)c2)C1` (stereo not drawn) [Example A-35] came in with a 50% inhibitory concentration (IC50) in test [1] of 1 to 15 µM. Besides, in test [2], the IC50 is under 1 µM and the “Selectivity … (IC50 ROCK1 / IC50 ROCK2)” value is given as under 5.

The molecule `O=C(c1ccnnc1)N1CCN(c2nnc(Nc3ccc4[nH]ncc4c3)s2)CC1` [Example A-36] showed an IC50 in test [1] of over 30 µM. Moreover, in test [2], the 50% inhibitory concentration (IC50) is 1 to 15 µM and the “Selectivity … (IC50 ROCK1 / IC50 ROCK2)” value is over 5.

Turning to `O=C(Nc1cncc(-c2nnc(Nc3ccc4[nH]ncc4c3)s2)c1)c1c[nH]cn1` [Example A-37], the IC50 in test [1] is over 30 µM. In addition, in test [2], the half-inhibitory concentration (IC50) was under 1 µM and the “Selectivity … (IC50 ROCK1 / IC50 ROCK2)” value is over 100.

The molecule `N[C@@H]1CCN(c2nnc(Nc3ccc4[nH]ncc4c3)s2)C1` [Example A-38] yielded an IC50 in test [1] of 1 to 15 µM. Besides, in test [2], the IC50 is 1 to 15 µM and the “Selectivity … (IC50 ROCK1 / IC50 ROCK2)” value is given as under 5.
